Data set [1] has as its system Cortical neurone. The data set can be described thus: Neuroprotective activity in Sprague-Dawley rat cortical neurons assessed as reduction in C2 ceramide-induced cell death treated for 2 hrs followed by challenged with C2 ceramide for 24 hrs by MTT assay. In kind it is functional. In general terms: Tetrazolium dyes change colour on reduction, which living cells bring about.

Data set [2] in a line: Neuroprotective activity in Sprague-Dawley rat cortical neurons assessed as reduction in C2 ceramide-induced cell death measured as cell survival at 1 uM for 2 hrs followed by challenged with C2 ceramide for 24 hrs by MTT assay. It counts as functional, Cortical neurone.
Data set [3] has as its system Cortical neurone. The data set can be described thus: Neuroprotective activity in Sprague-Dawley rat cortical neurons assessed as reduction in C2 ceramide-induced cell death at 30 uM for 2 hrs followed by challenged with C2 ceramide for 24 hrs by MTT assay. It counts as functional.
Data set [4] can be described thus: Neuroprotective activity in Sprague-Dawley rat cortical neurons assessed as reduction in C2 ceramide-induced cell death measured as cell survival at 10 uM for 2 hrs followed by challenged with C2 ceramide for 24 hrs by MTT assay in presence of PD98059 ERK1/2 inhibitor (reference value: 100.2 +/- 1.7%). It counts as functional, Cortical neurone.
Data set [5] can be described thus: Neuroprotective activity in Sprague-Dawley rat cortical neurons assessed as reduction in C2 ceramide-induced cell death measured as cell survival at 5 uM for 2 hrs followed by challenged with C2 ceramide for 24 hrs by MTT assay. In kind it is functional, Cortical neurone.
Data set [6] is described as follows: Cytotoxicity against Sprague-Dawley rat cortical neurons at 10 uM for 24 hrs by MTT assay. As to conditions: cortical neurone.
Data set [7] can be described thus: Neuroprotective activity in Sprague-Dawley rat cortical neurons assessed as reduction in C2 ceramide-induced cell death measured as cell survival at 10 uM for 2 hrs followed by challenged with C2 ceramide for 24 hrs by MTT assay in presence of U0126 ERK1/2 inhibitor (reference value: 100.2 +/- 1.7%). In kind it is functional, Cortical neurone.
The nature of data set [8]: Neuroprotective activity in Sprague-Dawley rat cortical neurons assessed as reduction in C2 ceramide-induced cell death measured as cell survival at 2.5 uM for 2 hrs followed by challenged with C2 ceramide for 24 hrs by MTT assay. It counts as functional, Cortical neurone.
In data set [9] the test system is Cortical neurone. The data set can be described thus: Neuroprotective activity in Sprague-Dawley rat cortical neurons assessed as attenuation of C2 ceramide-induced apoptosis at 10 uM challenged with C2 ceramide for 24 hrs by Hoechst 33258 staining. It counts as functional.
Data set [10] in a line: Neuroprotective activity in Sprague-Dawley rat cortical neurons assessed as reduction in C2 ceramide-induced cell death measured as cell survival at 10 uM for 2 hrs followed by challenged with C2 ceramide for 24 hrs by MTT assay. It counts as functional, Cortical neurone.

Molecules are shown by their SMILES. Calls of active or inactive are those of the source. The calls are words filed in the database; no cut-off is given here.

`Cc1cc2c(o1)c(-c1ccc(C(=O)O)cc1)nn2Cc1ccccc1`: in data set [1], the outcome was inactive.

`Cc1cc2c(o1)c(-c1ccc(CO)cc1)nn2-c1ccccc1`: the Activity is given as 75.6% in data set [2]; 70.3% in data set [4]; 90.1% in [5]; “Non-toxic” in data set [6]; 71.9% in [7]; 81.5% in data set [8]. In addition, in [10], the Activity was 100.2%. The result in data set [3] was inactive. The result in data set [1] and in [9] was Active.

Turning to `Cc1cc2c(o1)c(-c1ccc(C(=O)O)cc1)nn2-c1ccccc1`, the result in data set [1] was inactive.

The values are drawn from ChEMBL document CHEMBL1781882, “Neuroprotective effects of furopyrazole derivative of benzylindazole analogs on C2 ceramide-induced apoptosis in cultured cortical neurons” (Bioorg Med Chem Lett, 2009).
